# Measured values from US7989466B2, “Methods to inhibit or augment an inflammatory response” (Cambridge Enterprise Limited, priority 1999, dated 2011).
# Positions of bridges follow the written chain, without caps; N, C: chain ends. Non-standard residues stand in square brackets, D forms with d. Residues, ends and D or L forms follow the SMILES beside them.
# Assay: Competition of 125I-MCP-1 binding to heparin-coated agarose beads
# Details: 10^−11 to 10^−4 M
# Text: Chemokines bind to glycosaminoglycans on the cell surface, which may facilitate chemokine receptor binding and subsequent signaling. […] This was followed by a monophasic displacement curve at concentrations of approximately 10^−7 to 10^−5 M MCP-1.
smiles,measurement,value
CC[C@@H](C)[C@H]1NC(=O)[C@@H](CCC(N)=O)NC(=O)[C@H](N)CSSC[C@H](C(N)=O)NC(=O)[C@@H](CC(C)C)NC(=O)[C@@H](CC(=O)O)NC(=O)[C@H]2CCCN2C(=O)[C@@H](CCCCN)NC(=O)[C@@H](CCC(N)=O)NC(=O)[C@@H](CCCCN)NC(=O)[C@@H](Cc2c[nH]c3ccccc23)NC1=O (H-[dC][dQ][dI][dW][dK][dQ][dK][dP][dD][dL][dC]-NH2; disulfide 1-11; N-terminus assumed),displacement of 125I-MCP-1 from heparin-coated agarose beads,did not result in displacement
